Reference: patent publication US8575125B2, “Selective inhibitors of CB2 receptor expression and/or activity for the treatment of obesity and obesity-related disorders” (Institut National de la Sante et de la Recherche Medicale …, priority 2007, dated 2013)

Tests used:
[1] = tested on: overweight and obese patients; settings: 4 clinical studies, more than 6000 overweight and obese patients; cited from earlier work
[2] = tested on: ob/ob mice; experiment: Impact of CB2 antagonist on epididymal fat inflammatory gene expression in obese ob/ob mice (quantitative RT-PCR); format: in vivo, mouse; settings: 1 mg/kg daily intraperitoneal over 17 days, six week-old ob/ob mice
Description: Animals and Experimental Design: Experimental protocols were conducted in accordance with French government policies (Services véterinaires de la Santé et de la production animale, Ministère français de l'Agriculture). Animals were housed under 12 hours of light/12 hours of dark cycle, in a temperature-controlled environment. The impact of the CB2 antagonist AM630 was evaluated in 6 week-old male obese Lep^Ob/Lep^Ob male mice (ob/ob) and lean Lep^Ob+/Lep^Ob counterparts (ob+/ob). Mice received an 17 day-course of daily intraperitoneal injection of 1 mg/kg AM630 (n=10 ob/ob and n=5 ob+/ob) or vehicle (n=8 ob/ob and n=5 ob+/ob). AM630 (Tocris) was freshly dissolved in a vehicle solution containing 1 drop of Tween 80 in 0.1 ml dimethylsulfoxide (DMSO), sonicated, and further diluted 50 times in NaCl 9‰. Body weight and food intake were measured daily. Mice were sacrificed after overnight fasting. White epididymal adipose tissue was removed, weighed and either fixed in buffered formalin, or snap frozen in liquid nitrogen. All samples were stored at −80° C. until use.
RNA preparation and RT-PCR: Total RNA was extracted from mice epididymal fat using RNeasy® Lipid Tissue Mini kit (QIAGEN). Quantitative RT-PCR was carried out on a Light Cycler (Roche Diagnostics), as previously described.
The PCR amplified products were analyzed on a 2% agarose gel, and sequenced.

Row | Compound | efficacy with regard to weight loss and reduction of the associated cardiometabolic risks [1] | fat inflammatory response ([2]; epididymal fat, vs vehicle) | F4/80 mRNA expression in epididymal fat ([2]; vs vehicle (FIG. 16, p<0.05)) | MCP-1 mRNA expression in epididymal fat ([2]; vs vehicle (FIG. 16, p<0.05)) | TNF-alpha mRNA expression in epididymal fat ([2]; vs vehicle (FIG. 16, p<0.05))
1 | Cc1c(C(=O)NN2CCCCC2)nn(-c2ccc(Cl)cc2Cl)c1-c1ccc(Cl)cc1 [rimonabant, Rimonabant] | consistent efficacy |  |  |  | 
2 | COc1ccc(C(=O)c2c(C)n(CCN3CCOCC3)c3cc(I)ccc23)cc1 [AM 630] |  | reduced | lesser induction | lesser induction | lesser induction
